Data taken from US10881653B2, “Tricyclic compounds and their use in the treatment of cancer” (The United States of America, as represented by the …, priority 2015, dated 2021).
Structures can show the parent of a compound that is named as a salt. Where two headings read alike, the source gives them in different places.

Biological target: T1, recombinant thioredoxin reductase 1 (TrxR1) (Homo sapiens, UniProt Q16881)
T1 sequence (Q16881 1-649): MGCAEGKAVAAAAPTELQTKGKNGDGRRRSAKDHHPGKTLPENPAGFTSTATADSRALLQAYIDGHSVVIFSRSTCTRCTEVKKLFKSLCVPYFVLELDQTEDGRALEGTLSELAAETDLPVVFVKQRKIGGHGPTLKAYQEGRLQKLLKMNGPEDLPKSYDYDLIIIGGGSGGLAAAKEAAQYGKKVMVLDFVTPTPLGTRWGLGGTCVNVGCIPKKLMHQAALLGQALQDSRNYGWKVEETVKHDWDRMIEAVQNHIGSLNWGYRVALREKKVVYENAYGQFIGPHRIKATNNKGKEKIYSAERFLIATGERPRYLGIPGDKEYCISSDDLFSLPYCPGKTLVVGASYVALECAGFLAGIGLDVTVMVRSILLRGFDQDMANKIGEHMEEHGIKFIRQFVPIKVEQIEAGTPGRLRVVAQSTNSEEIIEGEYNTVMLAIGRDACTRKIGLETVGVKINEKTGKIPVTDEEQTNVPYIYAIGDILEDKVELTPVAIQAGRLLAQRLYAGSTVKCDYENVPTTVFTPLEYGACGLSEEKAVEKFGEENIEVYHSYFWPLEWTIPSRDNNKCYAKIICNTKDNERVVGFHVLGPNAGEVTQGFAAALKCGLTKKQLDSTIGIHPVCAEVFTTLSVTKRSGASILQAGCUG
Test: Inhibition of recombinant TrxR1 (DTNB assay)
Type: biochemical
In short: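 Human TrxR1 (15 nM) or GR (2 nM) preincubated 15 min with compound, 250 μM NADPH, 0.1 mg/ml BSA in 50 mM Tris pH 7.5, 2 mM EDTA, 1% DMSO. Reaction started with 2.5 mM DTNB (TrxR1, A412) or 1 mM GSSG (GR, A340). Percent activity relative to DMSO and no-enzyme blanks.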

Which results are given for `O=C1C=C[C@H]2[C@@H]3C(=O)N(c4ccccc4)C(=O)[C@@H]3[C@@H]1N2Cc1ccccc1` (relative stereo) [Example 1, exo-11-Benzyl-4-phenyl-4,11-diazatricyclo[5.3.1.0^2,6]undec-9-ene-3,5,8-trione Trifluoroacetate]?
IC50 (Biological Example 1, 15 nM TrxR1, 250 μM NADPH, 15 minutes incubation, read-out: TrxR inhibition): 2140 nM; IC50 (Biological Example 4, assays of Biological Example 1, read-out: TrxR Inhibition): 2190 nM
